The values below come from patent US8222219B2, “Glucopyranoside compound” (Mitsubishi Tanabe Pharma Corporation, priority 2003, dated 2012).

One experiment deals with T1, human SGLT2 (Homo sapiens, UniProt P31639).
T1 construct: expressed in transfected cells; host or cells: CHOK1 (CHO-K1) cells, kept under Geneticin selection
T1 sequence (P31639 1-672): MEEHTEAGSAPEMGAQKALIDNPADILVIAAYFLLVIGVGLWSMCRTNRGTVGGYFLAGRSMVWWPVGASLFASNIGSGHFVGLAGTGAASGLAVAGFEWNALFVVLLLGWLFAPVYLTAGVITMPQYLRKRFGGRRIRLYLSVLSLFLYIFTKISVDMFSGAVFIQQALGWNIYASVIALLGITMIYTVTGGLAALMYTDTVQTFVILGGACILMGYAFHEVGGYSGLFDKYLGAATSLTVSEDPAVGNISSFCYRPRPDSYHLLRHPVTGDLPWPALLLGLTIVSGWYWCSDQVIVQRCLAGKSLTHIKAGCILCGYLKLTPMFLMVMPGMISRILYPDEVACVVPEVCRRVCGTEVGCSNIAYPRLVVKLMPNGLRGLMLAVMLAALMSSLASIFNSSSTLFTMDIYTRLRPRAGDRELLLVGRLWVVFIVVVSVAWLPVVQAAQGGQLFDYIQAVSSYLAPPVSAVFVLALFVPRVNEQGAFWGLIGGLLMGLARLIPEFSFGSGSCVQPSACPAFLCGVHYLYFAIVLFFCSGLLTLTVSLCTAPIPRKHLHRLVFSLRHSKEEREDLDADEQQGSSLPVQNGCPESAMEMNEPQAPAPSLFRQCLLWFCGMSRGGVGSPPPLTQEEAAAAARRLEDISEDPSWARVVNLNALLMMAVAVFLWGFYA
Nature of the experiment: Assay for SGLT2 inhibition (14C-AMG uptake in CHOK1 cells expressing human SGLT2). The class given is cell-based.
Settings: not given
The protocol:
1. Assay for SGLT2 Inhibition
Compounds described in the above examples were used for the SGLT2 inhibition assay.
CHOK1 cells expressing human SGLT2 were seeded in 24-well plates at a density of 400,000 cells/well in F-12 nutrient mixture (Ham's F-12) containing 10% fetal bovine serum, 400 μg/ml Geneticin, 50 units/ml sodium penicillin G (Gibco-BRL) and 50 μg/ml streptomycin sulfate. […] Test compounds were dissolved in DMSO. The final concentration of DMSO was 0.5%. The transport reaction was initiated by addition of 50 μl [^14C]-methyl-α-D-glucopyranoside (^14C-AMG) solution (final concentration, 0.5 mM). After incubation for 2 hours at 37° C., the uptake was stopped by aspiration of the incubation mixture, the cells were washed three times with ice-cold PBS. Then, cells were solubilized with 0.3 N NaOH and aliquots were taken for determination of radioactivity by a liquid scintillation counter. Nonspecific AMG uptake was defined as that which occurred in the presence of 100 μM of phlorizin, a specific inhibitor of sodium-dependent glucose cotransporter. Specific uptake was normalized for the protein concentrations measured by the method of Bradford.
As usually defined, the IC50 is the point on the concentration scale where inhibition reaches its midpoint. With `Cc1ccc([C@@H]2O[C@H](CO)[C@@H](O)[C@H](O)[C@H]2O)cc1Cc1ccc(-c2ccc(F)cc2)s1` [Example 84], the half-inhibitory concentration (IC50) is 2.2 nM.

The experiment is the same for the next values; noted with them: CHOK1 cells expressing human SGLT2; 14C-AMG uptake 0.5 mM, 2 hours at 37° C.; read-out: IC50.
For the compound `OC[C@H]1O[C@@H](c2ccc(Cl)c(Cc3ccc(-c4ccccc4F)s3)c2)[C@H](O)[C@@H](O)[C@@H]1O` [Example 69], the IC50 turned out to be 7.9 nM.

In the case of `OC[C@H]1O[C@@H](c2ccc(Cl)c(Cc3ccc(-c4ccc(F)cc4)s3)c2)[C@H](O)[C@@H](O)[C@@H]1O` [Example 70], the IC50 was 7 nM.

For `CCOc1ccc(-c2ccc(Cc3cc([C@@H]4O[C@H](CO)[C@@H](O)[C@H](O)[C@H]4O)ccc3Cl)s2)cc1` [Example 71], the IC50 came out at 6.6 nM.

In the case of `CCOc1cccc(-c2ccc(Cc3cc([C@@H]4O[C@H](CO)[C@@H](O)[C@H](O)[C@H]4O)ccc3Cl)s2)c1` [Example 72], the IC50 came to 4.6 nM.

In the case of `OC[C@H]1O[C@@H](c2ccc(Cl)c(Cc3ccc(-c4cccc(F)c4)s3)c2)[C@H](O)[C@@H](O)[C@@H]1O` [Example 78], the IC50 was 1.7 nM.

As for `CCOc1cccc(-c2ccc(Cc3cc([C@@H]4O[C@H](CO)[C@@H](O)[C@H](O)[C@H]4O)ccc3F)s2)c1` [Example 79], the IC50 was found to be 9 nM.

On to `OC[C@H]1O[C@@H](c2ccc(F)c(Cc3ccc(-c4cccc(F)c4)s3)c2)[C@H](O)[C@@H](O)[C@@H]1O` [Example 80], for which the IC50 turned out to be 6.8 nM.

As for `Cc1ccc([C@@H]2O[C@H](CO)[C@@H](O)[C@H](O)[C@H]2O)cc1Cc1ccc(-c2cccc(F)c2)s1` [Example 83], the IC50 is 1.3 nM.

Take `Cc1cccc(-c2ccc(Cc3cc([C@@H]4O[C@H](CO)[C@@H](O)[C@H](O)[C@H]4O)ccc3C)s2)c1` [Example 86]: the half-inhibitory concentration (IC50) came to 2.8 nM.

As for `Cc1cccc(-c2ccc(Cc3cc([C@@H]4O[C@H](CO)[C@@H](O)[C@H](O)[C@H]4O)ccc3Cl)s2)c1` [Example 87], the IC50 turned out to be 3.4 nM.

For `OC[C@H]1O[C@@H](c2ccc(Cl)c(Cc3ccc(-c4cccc(Cl)c4)s3)c2)[C@H](O)[C@@H](O)[C@@H]1O` [Example 88], the IC50 was determined as 2.6 nM.

`Cc1ccc([C@@H]2O[C@H](CO)[C@@H](O)[C@H](O)[C@H]2O)cc1Cc1ccc(-c2cccc(Cl)c2)s1` [Example 89]: the 50% inhibitory concentration (IC50) turned out to be 3 nM.

On to `COc1cccc(-c2ccc(Cc3cc([C@@H]4O[C@H](CO)[C@@H](O)[C@H](O)[C@H]4O)ccc3C)s2)c1` [Example 90], for which the IC50 was 2 nM.

Consider `Cc1ccc([C@@H]2O[C@H](CO)[C@@H](O)[C@H](O)[C@H]2O)cc1Cc1ccc(-c2cccc(N(C)C)c2)s1` [Example 122, 1-(β-D-glucopyranosyl)-3-(5-(3-dimethylaminophenyl)-2-thienylmethyl)-4-methylbenzene], for which the concentration for half-maximal inhibition (IC50) stood at 8.2 nM.

`Cc1ccc([C@@H]2O[C@H](CO)[C@@H](O)[C@H](O)[C@H]2O)cc1Cc1ccc(-c2cccc(C(F)F)c2)s1` [Example 130, 1-(β-D-glucopyranosyl)-3-(5-(3-difluoromethylphenyl)-2-thienylmethyl)-4-methylbenzene]: the IC50 stood at 2.4 nM.

Consider `Cc1ccc([C@@H]2O[C@H](CO)[C@@H](O)[C@H](O)[C@H]2O)cc1Cc1ccc(-c2ccc3c(c2)OCO3)s1` [Example 145], for which the IC50 amounted to 4 nM.

In the case of `CCOc1cccc(-c2ccc(Cc3cc([C@@H]4O[C@H](CO)[C@@H](O)[C@H](O)[C@H]4O)ccc3Cl)s2)n1` [Example 173, 1-(β-D-glucopyranosyl)-4-chloro-3-(5-(6-ethoxy-2-pyridyl)-2-thienylmethyl)benzene], the IC50 came out at 8 nM.

On to `Cc1ccc([C@@H]2O[C@H](CO)[C@@H](O)[C@H](O)[C@H]2O)cc1Cc1ccc(-c2ccc(C(F)F)cc2)s1` [Example 176, 1-(β-D-glucopyranosyl)-3-(5-(4-difluoromethylphenyl)-2-thienylmethyl)-4-methylbenzene], for which the IC50 is 7.7 nM.

For the compound `OC[C@H]1O[C@@H](c2ccc(Cl)c(Cc3ccc(-c4ccc(C(F)F)cc4)s3)c2)[C@H](O)[C@@H](O)[C@@H]1O` [Example 179, 1-(β-D-glucopyranosyl)-4-chloro-3-(5-(4-difluoromethylphenyl)-2-thienylmethyl)benzene], the IC50 came out at 9.8 nM.

Regarding `N#Cc1ccc(-c2ccc(Cc3cc([C@@H]4O[C@H](CO)[C@@H](O)[C@H](O)[C@H]4O)ccc3Cl)s2)cc1F` [Example 183, 1-(β-D-glucopyranosyl)-4-chloro-3-(5-(4-cyano-3-fluorophenyl)-2-thienylmethyl)benzene], the IC50 was 9.5 nM.

On to `Cc1ccc([C@@H]2O[C@H](CO)[C@@H](O)[C@H](O)[C@H]2O)cc1Cc1ccc(-c2ccc(F)c(C#N)c2)s1` [Example 185, 1-(β-D-glucopyranosyl)-4-methyl-3-(5-(3-cyano-4-fluorophenyl)-2-thienylmethyl)benzene], for which the IC50 stood at 5.6 nM.

In the case of `Cc1ccc([C@@H]2O[C@H](CO)[C@@H](O)[C@H](O)[C@H]2O)cc1Cc1ccc(-c2ccc(C#N)nc2)s1` [Example 186, 1-(β-D-glucopyranosyl)-3-(5-(2-cyano-5-pyridyl)-2-thienylmethyl)-4-methylbenzene], the 50% inhibitory concentration (IC50) came to 5.4 nM.

For the compound `N#Cc1ccc(-c2ccc(Cc3cc([C@@H]4O[C@H](CO)[C@@H](O)[C@H](O)[C@H]4O)ccc3Cl)s2)cn1` [Example 187, 1-(β-D-glucopyranosyl)-4-chloro-3-(5-(2-cyano-5-pyridyl)-2-thienylmethyl)benzene], the IC50 was 4.3 nM.

With `NC(=O)c1ccc(-c2ccc(Cc3cc([C@@H]4O[C@H](CO)[C@@H](O)[C@H](O)[C@H]4O)ccc3Cl)s2)cn1` [Example 188, 1-(β-D-glucopyranosyl)-3-(5-(2-carbamoyl-5-pyridyl)-2-thienylmethyl)-4-chlorobenzene], the IC50 worked out at 1.6 nM.

Regarding `CCOC(=O)c1ccc(-c2ccc(Cc3cc([C@@H]4O[C@H](CO)[C@@H](O)[C@H](O)[C@H]4O)ccc3Cl)s2)cc1` [Example 191, 1-(β-D-glucopyranosyl)-4-chloro-3-(5-(4-ethoxycarbonylphenyl)-2-thienylmethyl)benzene], the IC50 turned out to be 7.7 nM.

As for `O=C(O)c1ccc(-c2ccc(Cc3cc([C@@H]4O[C@H](CO)[C@@H](O)[C@H](O)[C@H]4O)ccc3Cl)s2)cc1` [Example 192, 1-(β-D-glucopyranosyl)-3-(5-(4-carboxyphenyl)-2-thienylmethyl)-4-chlorobenzene], the IC50 is 7.4 nM.

Turning to `NC(=O)c1ccc(-c2ccc(Cc3cc([C@@H]4O[C@H](CO)[C@@H](O)[C@H](O)[C@H]4O)ccc3Cl)s2)cc1` [Example 193, 1-(β-D-glucopyranosyl)-3-(5-(4-carbamoylphenyl)-2-thienylmethyl)-4-chlorobenzene], the IC50 is 0.9 nM.

Regarding `Nc1ccc(-c2ccc(Cc3cc([C@@H]4O[C@H](CO)[C@@H](O)[C@H](O)[C@H]4O)ccc3Cl)s2)cc1` [Example 197, 1-(β-D-glucopyranosyl)-3-(5-(4-aminophenyl)-2-thienylmethyl)-4-chlorobenzene], the IC50 is 2 nM.

On to `Cc1ccc([C@@H]2O[C@H](CO)[C@@H](O)[C@H](O)[C@H]2O)cc1Cc1ccc(-c2cc(F)cc(F)c2)s1` [Example 201], for which the IC50 was determined as 8.2 nM.

Consider `OC[C@H]1O[C@@H](c2ccc(Cl)c(Cc3ccc(-c4cncs4)s3)c2)[C@H](O)[C@@H](O)[C@@H]1O` [Example 204], for which the IC50 is 1.4 nM.

For the compound `OC[C@H]1O[C@@H](c2ccc(Cl)c(Cc3ccc(-c4cscn4)s3)c2)[C@H](O)[C@@H](O)[C@@H]1O` [Example 207], the IC50 was 0.6 nM.

Regarding `COc1cccc(-c2ccc(Cc3cc([C@@H]4O[C@H](CO)[C@@H](O)[C@H](O)[C@H]4O)ccc3C)s2)n1` [Example 208], the 50% inhibitory concentration (IC50) stood at 2.4 nM.

In the case of `COc1ccc(-c2ccc(Cc3cc([C@@H]4O[C@H](CO)[C@@H](O)[C@H](O)[C@H]4O)ccc3C)s2)cn1` [Example 209], the half-maximal inhibitory concentration (IC50) came out at 3.9 nM.

As to `Cc1ccc([C@@H]2O[C@H](CO)[C@@H](O)[C@H](O)[C@H]2O)cc1Cc1ccc(-c2cscn2)s1` [Example 210], the IC50 is 1 nM.

As to `Cc1ccc([C@@H]2O[C@H](CO)[C@@H](O)[C@H](O)[C@H]2O)cc1Cc1ccc(-c2cccs2)s1` [Example 211], the IC50 worked out at 1.2 nM.

Consider `CCOc1cccc(-c2ccc(Cc3cc([C@@H]4O[C@H](CO)[C@@H](O)[C@H](O)[C@H]4O)ccc3C)s2)c1` [Example 212], for which the IC50 is 2.6 nM.

`OC[C@H]1O[C@@H](c2ccc(Cl)c(Cc3ccc(-c4ccnc(F)c4)s3)c2)[C@H](O)[C@@H](O)[C@@H]1O` [Example 216]: the IC50 was 3.3 nM.
